We go through three compounds from paper PMC4685510, “A Cell Biologist’s Field Guide to Aurora Kinase Inhibitors” (Frontiers in Oncology, 2015).

Common to all, as to experiment: biochemical
Common to all, as to type: biochemical

Assay [1] concerns the target T1, 363 human kinases (including Aurora A/B/C) (Homo sapiens, UniProt Q6XUX3).
T1 sequence (Q6XUX3 1-929): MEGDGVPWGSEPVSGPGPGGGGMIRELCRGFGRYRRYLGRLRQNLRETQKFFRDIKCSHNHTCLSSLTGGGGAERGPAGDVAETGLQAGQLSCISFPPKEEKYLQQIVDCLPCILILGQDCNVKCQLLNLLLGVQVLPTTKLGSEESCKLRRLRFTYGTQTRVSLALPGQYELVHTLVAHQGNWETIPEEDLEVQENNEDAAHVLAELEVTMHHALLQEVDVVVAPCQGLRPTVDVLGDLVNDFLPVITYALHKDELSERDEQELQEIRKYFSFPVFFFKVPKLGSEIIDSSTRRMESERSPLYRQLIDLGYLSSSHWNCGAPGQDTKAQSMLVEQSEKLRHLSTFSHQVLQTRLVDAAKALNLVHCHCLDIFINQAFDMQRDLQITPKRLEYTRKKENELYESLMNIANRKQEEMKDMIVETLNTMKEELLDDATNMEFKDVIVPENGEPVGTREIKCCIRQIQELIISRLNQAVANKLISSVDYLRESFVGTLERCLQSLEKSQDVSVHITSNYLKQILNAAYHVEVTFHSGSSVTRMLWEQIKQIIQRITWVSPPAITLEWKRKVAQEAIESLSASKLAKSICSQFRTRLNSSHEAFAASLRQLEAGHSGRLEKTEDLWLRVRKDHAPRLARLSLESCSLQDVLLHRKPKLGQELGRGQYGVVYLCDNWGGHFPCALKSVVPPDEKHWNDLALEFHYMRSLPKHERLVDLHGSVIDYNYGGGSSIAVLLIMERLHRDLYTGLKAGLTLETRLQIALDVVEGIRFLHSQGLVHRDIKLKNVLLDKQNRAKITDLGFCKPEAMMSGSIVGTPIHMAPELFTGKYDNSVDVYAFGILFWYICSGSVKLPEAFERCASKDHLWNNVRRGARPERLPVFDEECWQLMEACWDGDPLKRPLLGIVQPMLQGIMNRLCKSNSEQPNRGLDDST
As to conditions: RIPK5; for remaining activity at 0.5 µM / remaining activity at 0.1 µM: read-out: % Enzyme Activity (relative to DMSO controls); for remaining activity at 0.1 µM: 100 nM.
From the text: (§1) However, the Aurora A/B selectivity ratios derived from our in vitro and in vivo data can be compared to prioritize inhibitors.

Assay [2] addresses 363 human kinases (including Aurora A/B/C) (Homo sapiens, UniProt Q16512). As to conditions: PKN1/PRK1; for remaining activity at 0.5 µM / remaining activity at 0.1 µM: read-out: % Enzyme Activity (relative to DMSO controls); for remaining activity at 0.1 µM: 100 nM.
From the text: as §1
Assay [3] concerns the target T2, 363 human kinases (including Aurora A/B/C) (Homo sapiens, UniProt P42680).
T2 sequence (P42680 1-631): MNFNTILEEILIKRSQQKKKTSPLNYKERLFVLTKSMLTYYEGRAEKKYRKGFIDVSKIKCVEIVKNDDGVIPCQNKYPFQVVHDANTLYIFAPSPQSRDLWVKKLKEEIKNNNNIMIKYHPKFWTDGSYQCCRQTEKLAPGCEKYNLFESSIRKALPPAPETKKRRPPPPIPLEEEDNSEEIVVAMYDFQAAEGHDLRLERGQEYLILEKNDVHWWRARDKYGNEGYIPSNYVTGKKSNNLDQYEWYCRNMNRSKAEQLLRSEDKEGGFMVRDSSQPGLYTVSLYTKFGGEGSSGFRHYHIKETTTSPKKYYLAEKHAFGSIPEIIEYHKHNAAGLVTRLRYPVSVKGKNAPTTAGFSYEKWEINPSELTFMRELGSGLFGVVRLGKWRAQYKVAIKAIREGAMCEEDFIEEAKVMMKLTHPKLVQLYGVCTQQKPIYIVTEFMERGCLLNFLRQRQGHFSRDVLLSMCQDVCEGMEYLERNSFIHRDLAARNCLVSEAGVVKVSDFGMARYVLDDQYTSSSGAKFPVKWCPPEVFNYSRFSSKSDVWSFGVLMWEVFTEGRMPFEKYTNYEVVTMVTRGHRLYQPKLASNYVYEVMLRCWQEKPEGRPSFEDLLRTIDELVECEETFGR
As to conditions: TEC; for remaining activity at 0.5 µM / remaining activity at 0.1 µM: read-out: % Enzyme Activity (relative to DMSO controls); for remaining activity at 0.1 µM: 100 nM.
From the text: as §1

Assay [4] deals with T3, 363 human kinases (including Aurora A/B/C) (Homo sapiens, UniProt Q8TD08).
T3 sequence (Q8TD08 1-544): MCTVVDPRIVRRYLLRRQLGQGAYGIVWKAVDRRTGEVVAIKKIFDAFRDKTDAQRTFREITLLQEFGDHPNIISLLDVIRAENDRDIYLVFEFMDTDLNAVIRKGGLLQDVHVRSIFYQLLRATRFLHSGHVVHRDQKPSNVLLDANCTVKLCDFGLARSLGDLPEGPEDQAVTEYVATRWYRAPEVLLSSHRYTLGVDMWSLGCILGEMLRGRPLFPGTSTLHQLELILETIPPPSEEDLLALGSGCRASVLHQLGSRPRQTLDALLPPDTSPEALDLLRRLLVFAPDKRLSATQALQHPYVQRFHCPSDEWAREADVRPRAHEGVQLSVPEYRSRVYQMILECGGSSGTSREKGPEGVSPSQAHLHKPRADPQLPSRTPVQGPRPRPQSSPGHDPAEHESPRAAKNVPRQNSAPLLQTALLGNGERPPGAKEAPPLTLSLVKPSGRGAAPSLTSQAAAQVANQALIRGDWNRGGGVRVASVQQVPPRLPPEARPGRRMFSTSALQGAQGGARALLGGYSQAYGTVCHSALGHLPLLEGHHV
As to conditions: ERK7/MAPK15, [ATP] 10 µM; for remaining activity at 0.5 µM / remaining activity at 0.1 µM: read-out: % Enzyme Activity (relative to DMSO controls); for remaining activity at 0.1 µM: 100 nM.
From the text: as §1

Chain of 363 human kinases (including Aurora A/B/C) (Homo sapiens, UniProt Q16512) (Q16512 whole entry): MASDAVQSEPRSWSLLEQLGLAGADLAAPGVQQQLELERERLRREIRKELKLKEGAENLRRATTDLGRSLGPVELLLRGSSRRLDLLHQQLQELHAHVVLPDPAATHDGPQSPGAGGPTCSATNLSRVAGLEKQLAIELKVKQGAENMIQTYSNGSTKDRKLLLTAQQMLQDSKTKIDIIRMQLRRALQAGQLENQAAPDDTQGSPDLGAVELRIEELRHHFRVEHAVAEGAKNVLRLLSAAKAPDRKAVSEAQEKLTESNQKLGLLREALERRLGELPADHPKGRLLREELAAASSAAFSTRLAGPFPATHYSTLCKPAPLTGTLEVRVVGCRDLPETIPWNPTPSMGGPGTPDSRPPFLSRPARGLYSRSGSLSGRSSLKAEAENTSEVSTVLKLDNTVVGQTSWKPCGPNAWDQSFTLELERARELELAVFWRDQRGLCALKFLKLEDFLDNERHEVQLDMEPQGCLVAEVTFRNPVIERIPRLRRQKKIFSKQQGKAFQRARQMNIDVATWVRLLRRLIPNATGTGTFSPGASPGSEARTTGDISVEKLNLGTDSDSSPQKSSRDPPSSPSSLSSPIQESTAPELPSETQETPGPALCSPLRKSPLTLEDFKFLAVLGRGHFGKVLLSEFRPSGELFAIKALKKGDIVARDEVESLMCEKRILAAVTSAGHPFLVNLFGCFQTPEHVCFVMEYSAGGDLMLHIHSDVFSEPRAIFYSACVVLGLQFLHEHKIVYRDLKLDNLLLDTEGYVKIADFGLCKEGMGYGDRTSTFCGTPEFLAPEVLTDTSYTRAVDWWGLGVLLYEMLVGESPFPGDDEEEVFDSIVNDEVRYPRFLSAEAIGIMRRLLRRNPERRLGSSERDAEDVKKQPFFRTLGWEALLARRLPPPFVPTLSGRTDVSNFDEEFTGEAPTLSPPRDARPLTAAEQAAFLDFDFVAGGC

As for `O=C(c1cccc(Cl)c1F)N1CCN(Cc2cccc(Nc3nccs3)n2)CC1` [MK-8745], the “% Enzyme Activity (relative to DMSO controls)” value was 103.95% in assay [1] (500 nM), 94.45% in assay [2] (500 nM), 100.04% in assay [3] (500 nM) and 85.14% in assay [4] (500 nM). Also, the remaining activity at 0.5 µM in assay [1] (500 nM) was 105%; in assay [2] (500 nM) it was 96.7%; in assay [3] (500 nM), 102%; in assay [4] (500 nM), 92.2%.

In the case of `CCn1cc(-c2ccnc3[nH]c(-c4cccc(CN(C)C)c4)cc23)c(-c2ccc(NC(=O)N(C)C)cc2)n1` [GSK1070916], the remaining activity at 0.1 µM turned out to be 114% in assay [1], 103% in assay [2], 100% in assay [3] and 102% in assay [4].

`O=C(O)[C@]1(Cc2cccc(Nc3nccs3)n2)CC[C@@H](Oc2cccc(Cl)c2F)CC1` [MK-5108]: the remaining activity at 0.1 µM is 96.6% in assay [1], 96% in assay [2], 68.8% in assay [3] and 83.7% in assay [4]. The remaining activity at 0.5 µM in assay [1] (500 nM) worked out at 123%; in assay [2] (500 nM), 115%; in assay [3] (500 nM), 40.6%; in assay [4] (500 nM), 64.2%.
